This is an account of results in publication PMC3038857, “Using Nuclear Receptor Activity to Stratify Hepatocarcinogens” (PLoS ONE, 2011).

Data set [1] concerns the target T1, PPARG (peroxisome proliferator-activated receptor gamma) (Homo sapiens, UniProt P37231).
T1 construct: expressed in transfected cells; host or cells: HepG2
T1 sequence (P37231 1-505): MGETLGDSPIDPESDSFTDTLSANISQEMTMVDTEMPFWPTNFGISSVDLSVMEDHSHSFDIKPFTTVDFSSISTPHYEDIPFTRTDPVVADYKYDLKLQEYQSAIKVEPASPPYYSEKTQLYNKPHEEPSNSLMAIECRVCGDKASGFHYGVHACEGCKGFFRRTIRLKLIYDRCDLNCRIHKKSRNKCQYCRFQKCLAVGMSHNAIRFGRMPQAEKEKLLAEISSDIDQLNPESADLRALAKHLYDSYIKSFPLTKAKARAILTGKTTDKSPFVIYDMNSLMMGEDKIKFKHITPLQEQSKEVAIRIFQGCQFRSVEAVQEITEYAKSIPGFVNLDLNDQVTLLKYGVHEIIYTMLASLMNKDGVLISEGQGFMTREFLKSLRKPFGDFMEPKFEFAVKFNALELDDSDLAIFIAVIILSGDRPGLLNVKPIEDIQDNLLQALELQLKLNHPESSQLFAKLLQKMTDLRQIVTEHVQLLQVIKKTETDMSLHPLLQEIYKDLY
Nature of the data set: ATG_PPARg_TRANS: Factorial reporter gene assay (HepG2). The class given is cell-based. The essentials:
(§1)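 HepG2 cells transfected with multiplexed reporter libraries: cis-acting binding-site reporters (CIS) and a one-hybrid nuclear-receptor trans system (TRANS). Chemicals tested at seven concentrations, starting at the maximum tolerated concentration with three-fold serial dilutions.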
In general terms: A reporter such as luciferase makes a cellular process visible.

Data set [2] concerns the target T2, PXR (NR1I2) (Homo sapiens, UniProt O75469).
T2 sequence (O75469 1-434): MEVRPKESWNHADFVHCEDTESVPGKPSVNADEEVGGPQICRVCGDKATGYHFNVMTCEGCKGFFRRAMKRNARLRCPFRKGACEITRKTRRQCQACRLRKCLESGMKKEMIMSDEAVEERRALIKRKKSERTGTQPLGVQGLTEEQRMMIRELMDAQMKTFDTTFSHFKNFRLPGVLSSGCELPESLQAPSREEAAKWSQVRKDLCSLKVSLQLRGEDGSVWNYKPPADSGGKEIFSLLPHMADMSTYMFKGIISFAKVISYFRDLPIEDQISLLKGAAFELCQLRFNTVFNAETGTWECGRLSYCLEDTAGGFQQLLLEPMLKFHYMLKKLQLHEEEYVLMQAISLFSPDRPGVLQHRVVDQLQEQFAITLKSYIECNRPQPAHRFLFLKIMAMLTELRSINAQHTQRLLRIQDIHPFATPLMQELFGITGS
Nature of the data set: NVS_NR_hPXR: Human PXR Fluormone PXR (SXR) green (cell-free HTS). The class given is binding. Put shortly: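 Responses were normalized to same-plate solvent controls as percent of neutral control. AC50 values came from Hill-equation fits of concentration-response curves.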

Data set [3] relates to CYP2B6. Nature of the data set: CLZD_CYP2B6: Change in expression of CYP2B6 (primary human hepatocytes). To be noted: 24 hr. The class given is cell-based. Put shortly:
(§2)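 Primary human hepatocytes exposed to 5 concentrations (0.004-40 µM) for 6, 24 or 48 hr; transcript levels measured by multiplexed quantitative nuclease protection assay. Markers of nuclear receptor pathways: CYP1A1 (AhR), CYP2B6 and ABCB1 (CAR), CYP3A4 (PXR).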

Data set [4] has as its target T3, PPARg (PPARG) (Homo sapiens, UniProt P37231).
T3 sequence (P37231 1-505): T1 sequence (P37231 1-505)
Nature of the data set: NVS_NR_hPPARg: Human PPARg Fluorescent Ligand (cell-free HTS). The class given is binding. From the text: (§3) These are a collection of biochemical assays measuring binding constants and enzyme inhibition values. Chemicals were initially screened at a single concentration in duplicate wells at a concentration of 10 [drawing 63] M for cytochrome P-450 assays and 25 [drawing 64] M for all others. […] These assays were run by Caliper Life Sciences (Hanover, MD) under contract to EPA. Short assay descriptions are available at: http://www.caliperls.com/products/contract-research/in-vitro/.
(§4) Cell-free HTS Assays: A collection of biochemical assays measuring binding constants and enzyme inhibition values. […] These assays were run by Caliper Life Sciences (Hanover, MD) under contract to EPA. Short assay descriptions are available at http://www.caliperls.com/products/contract-research/in-vitro/. Values for all endpoints were imported into GeneData Screener (Basel, Switzerland) and normalised to solvent controls from the same plate as the tested compounds and expressed as percent of neutral control. Concentration-response curves were fit in GeneData Screener (Basel, Switzerland) Condeseo module using the Hill equation and AC50 values were determined. […] Detailed description of the methods, data and analysis methods for this dataset are described in a separate publication.

Data set [5] addresses T2, PXR (NR1I2). Nature of the data set: ATG_PXRE_CIS: Factorial reporter gene assay (HepG2). It is filed as cell-based. On the set-up: endogenous in cells; host or cells: HepG2. The essentials:
as §1

In data set [6] the test system is CYP3A4. As to the kind of experiment: CLZD_CYP3A4: Change in expression of CYP3A4 (primary human hepatocytes). It is filed as cell-based. Particulars: 24 hr. The essentials:
as §2

The subject of data set [7] is AR (androgen receptor). As to the kind of experiment: NVS_NR_hAR: Human AR 3H-Methyltrienolone (cell-free HTS). It is filed as binding.
Excerpt: as §3, §4

The target in data set [8] is T4, CAR (NR1I3) (Homo sapiens, UniProt Q14994).
T4 sequence (Q14994 1-352): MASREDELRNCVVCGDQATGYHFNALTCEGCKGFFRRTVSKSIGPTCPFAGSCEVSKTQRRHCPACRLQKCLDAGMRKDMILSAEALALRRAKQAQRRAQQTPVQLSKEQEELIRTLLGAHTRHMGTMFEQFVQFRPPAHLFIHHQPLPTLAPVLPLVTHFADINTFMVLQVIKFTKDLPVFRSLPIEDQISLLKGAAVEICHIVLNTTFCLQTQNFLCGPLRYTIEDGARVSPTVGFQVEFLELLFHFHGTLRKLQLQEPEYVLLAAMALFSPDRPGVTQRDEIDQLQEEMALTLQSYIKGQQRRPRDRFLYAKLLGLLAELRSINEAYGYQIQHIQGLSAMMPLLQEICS
Nature of the data set: ATG_PBREM_CIS: Factorial reporter gene assay (HepG2). The class given is cell-based. The arrangement: endogenous in cells; host or cells: HepG2. Particulars: HepG2 reporter. Here is the method: (§5) A multiple reporter transcription unit (MRTU) library consisting of 48 transcription factor binding sites was transfected into the HepG2 human liver hepatoma cell line. In addition to the cis-acting reporter genes (CIS), a modification of the approach was used to generate a trans-system (TRANS) with a mammalian one-hybrid assay consisting of an additional 25 MRTU library reporting the activity of nuclear receptor super-family members. […] These assays were performed by Attagene Inc. (Morrisville NC) under contract to EPA.
(§6) In addition to the cis-acting reporter genes (CIS), a modification of the approach was used to generate a trans-system (TRANS) with a mammalian one-hybrid assay consisting of an additional 25 MRTU library reporting the activity of nuclear receptor super-family members. […] Chemicals were then tested in the CIS and TRANS assays at seven concentrations starting at the MTC and followed by three-fold serial dilutions. These assays were performed by Attagene Inc. (Morrisville NC) under contract to EPA. Detailed description of the methods, data and analysis methods for this dataset will be presented in a separate publication.

Data set [9] relates to Rat Liver. To be noted: chronic study, rat liver; ref ToxRefDB; cited from earlier work.
In data set [10] the test system is Rat Liver. Particulars: chronic study, rat liver; ref ToxRefDB; cited from earlier work. The source holds these as a separate data set.
The subject of data set [11] is ABCB11. Nature of the data set: CLZD_ABCB11: Change in expression of ABCB11 (primary human hepatocytes). Particulars: 24 hr. It is filed as cell-based. As to the method: This is a collection of multiplexed gene expression assays focused on Phase I and II xenobiotic metabolizing enzymes and transporters. Human primary cell cultures were treated with chemicals at 5 concentrations (0.004-40 [drawing 42] M) for 6, 24 and 48 hr. Concentration- and time-response profiles of chemicals were measured by the expression of key nuclear receptor target genes, activities of CYP1A enzymes (EROD), and cell morphology. Fourteen gene targets were monitored by quantitative nuclease protection assay including: six representative cytochrome P-450 genes, four hepatic transporters, three Phase II conjugating enzymes, and one endogenous metabolism gene involved in cholesterol synthesis. The target genes associated with nuclear receptor pathways are as follows: [drawing 43] and [drawing 44] with [drawing 45]; [drawing 46] , [drawing 47] , [drawing 48] , [drawing 49] , [drawing 50] and [drawing 51] with [drawing 52]; [drawing 53] , [drawing 54] , [drawing 55] and [drawing 56] with [drawing 57]; [drawing 58] with [drawing 59]; and [drawing 60] with [drawing 61] . Assays were run in primary human hepatocyte cultures by CellzDirect Invitrogen Inc. (Durham, NC), in collaboration with EPA.
Multiplexed Gene Expression in Human Primary Hepatocytes: This is a collection of multiplexed gene expression assays focused on Phase I and II metabolic enzymes and transporters. […] Fourteen gene targets were monitored by quantitative nuclease protection assay: six representative cytochrome P450 genes, four hepatic transporters, three Phase II conjugating enzymes, and one endogenous metabolism gene involved in cholesterol synthesis. Cells were exposed at 5 concentrations (0.004-40 µM) for 6, 24 or 48 hr. Gene targets are sentinels for five nuclear receptor signaling pathways: AhR, CAR, PXR, FXR, and PPARα. All gene are associated with nuclear receptor pathways: CYP1A1 and CYP1A2 with AHR; ABCB1, ABCG2, CYP2B6, CYP2C9, CYP2C19 and UGT1A1 with CAR; CYP3A4, GSTA2, SLCO1B1 and SULT2A1 with PXR; HMGCS2 with PPARA; and ABCB11 with FXR. […] Detailed description of the methods, data and analysis methods for this dataset will be presented in a separate publication.

Data set [12] deals with T5, ESR1 (estrogen receptor 1) (Homo sapiens, UniProt P03372).
T5 construct: expressed in transfected cells; host or cells: HepG2
Nature of the data set: ATG_ERE_CIS: Factorial reporter gene assay (HepG2). It is filed as cell-based. To be noted: HepG2 reporter. Here is the method:
as §5, §6

Data set [13] concerns Rat Liver. Particulars: chronic study, rat liver; ref ToxRefDB; cited from earlier work. The source holds these as a separate data set.
Data set [14] has as its target T6, ERa (ESR1) (Homo sapiens, UniProt P03372).
T6 construct: expressed in transfected cells; host or cells: HEK293
Nature of the data set: NCGC_ERalpha_Antagonist: GAL4 BLAM Reporter gene assay: ERa. The class given is cell-based. To be noted: antagonist mode.

The target of data set [15] is T5, ESR1 (estrogen receptor 1). Nature of the data set: ATG_ERa_TRANS: Factorial reporter gene assay (HepG2). It is filed as cell-based. To be noted: HepG2 reporter. Here is the method: as §5, §6

T5 sequence (P03372 whole entry): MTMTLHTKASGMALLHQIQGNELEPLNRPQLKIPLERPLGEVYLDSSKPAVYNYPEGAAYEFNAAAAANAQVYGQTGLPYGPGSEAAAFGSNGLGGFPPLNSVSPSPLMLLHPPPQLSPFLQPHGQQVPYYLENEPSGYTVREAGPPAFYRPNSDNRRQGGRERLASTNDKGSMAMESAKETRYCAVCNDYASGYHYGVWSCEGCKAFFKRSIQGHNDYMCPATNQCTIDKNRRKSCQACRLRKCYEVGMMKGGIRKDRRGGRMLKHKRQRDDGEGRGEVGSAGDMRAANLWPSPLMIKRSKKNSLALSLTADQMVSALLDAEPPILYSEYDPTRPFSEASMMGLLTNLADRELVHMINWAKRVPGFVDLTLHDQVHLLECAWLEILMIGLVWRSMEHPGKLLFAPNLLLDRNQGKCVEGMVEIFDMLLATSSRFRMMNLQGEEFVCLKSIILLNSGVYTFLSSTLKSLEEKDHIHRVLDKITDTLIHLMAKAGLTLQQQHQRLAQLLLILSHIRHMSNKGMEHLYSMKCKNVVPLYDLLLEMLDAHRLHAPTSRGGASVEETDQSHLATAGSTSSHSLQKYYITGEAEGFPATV
T6 sequence (P03372 whole entry): as above

The compound `O=S(=O)(O)C(F)(F)C(F)(F)C(F)(F)C(F)(F)C(F)(F)C(F)(F)C(F)(F)C(F)(F)F` [r240] came in with an ATG_PPARg_TRANS in data set [1] (HepG2) of 4.585. The same compound yielded an NVS_NR_hPXR in data set [2] of 4.496. This compound also came in with a CLZD_CYP2B6_24 in data set [3] of 4.97. Besides, in [4], the NVS_NR_hPPARg was 4.932. In [5] (HepG2), this compound gave an ATG_PXRE_CIS of 4.745. Also, the CLZD_CYP3A4_24 in data set [6] was found to be 4.541. Also, the NVS_NR_hAR in [7] came out at 4.625.

On to `CC(C)(C)c1ccc(CSc2cnn(C(C)(C)C)c(=O)c2Cl)cc1` [r272], for which the ATG_PPARg_TRANS in data set [1] (HepG2 reporter) is 4.854. The ATG_PBREM_CIS in data set [8] worked out at 5.699. Further, in data set [9], the CHR_Rat_Liver_1_AnyLesion is given as 0. Moreover, the CHR_Rat_Liver_2_PreneoplasticLesion in data set [10] is 0. The CLZD_ABCB11_24 in [11] worked out at 5.168. Besides, in [12], the ATG_ERE_CIS stood at 4.959. Besides, the ATG_PXRE_CIS in data set [5] (HepG2 reporter) is on record as 5.444. In [13], the CHR_Rat_Liver_3_NeoplasticLesion was 0. Moreover, the NCGC_ERalpha_Antagonist in data set [14] is listed as 5.155. Besides, the ATG_ERa_TRANS in data set [15] stood at 4.367.
